“Also recorded” adds a separate entry of the source.
Tests used:
Format in all cases: biochemical, human
[1] = system: normal pooled plasma (NPP); experiment: dRVVT Screen / dRVVT Confirm test, 1:1 mixing study
Excerpt: (§1) The results of the LA screening assays are expressed by Screen Ratio (Rs), an assay done in the presence of low levels of phospholipid, Confirm Ratio (Re), an assay done in the presence of elevated levels of phospholipid, Screen-to-Confirm Ratio (R) and Normalized Screen-to-Confirm Ratio (NR) defined as follows: […]
(§2) For each of the assays above, irrespective of the clotting inhibitor used in the assay, the measured screen assay clotting time of a patient sample is compared to the measured screen assay clotting time of normal platelet poor plasma and expressed as a ratio (Rs). Additionally, the measured confirm assay clotting time of a patient sample is compared to the measured confirm assay clotting time of normal platelet poor plasma and expressed as a ratio (Rc). A normalized ratio (NR) is expressed as Rs/Rc. The NR is compared to a cutoff ratio established from normal, healthy subjects.

[2] = system: LA positive plasma sample; experiment: as above; settings: for NR of dRVVT test: 1000 ng/ml PPACK
Excerpt: as §1, §2

[3] = system: patient plasma samples (LA negative, factor deficient, LA positive); experiment: HemosIL dRVVT Screen and dRVVT Confirm in the presence of PPACK, 1:1 mixing study setting, patient samples; settings: 350 nM PPACK
Excerpt: as §1
For each of the assays above, irrespective of the clotting inhibitor used in the assay, the measured screen assay clotting time of a patient sample is compared to the measured screen assay clotting time of normal platelet poor plasma and expressed as a ratio (Rs). Additionally, the measured confirm assay clotting time of a patient sample is compared to the measured confirm assay clotting time of normal platelet poor plasma and expressed as a ratio (Rc). A normalized ratio (NR) is expressed as Rs/Rc. The NR is compared to a cutoff ratio established from normal, healthy subjects. […]
The study reported the normalized ratio correctly for all plasma samples and addressed issues with factor deficiency (Table 2).

[4] = system: LA negative sample (platelet poor NPP); experiment: APTT-based silica clotting time (SCT Screen / SCT Confirm) assay, 1:1 mixing study; settings: for Screen-to-Confirm Ratio (R) of SCT Assay: LA negative sample
Excerpt: as §1, §2
(§3) D-phenylalanyl-1-prolyl-1-arginine-chloromethyl ketone (PPACK) is a synthetic peptide that irreversibly binds to the catalytic site of thrombin. Referring to FIGS. 1-3, the use of PPACK in an SCT assay is shown where a plasma test sample was mixed with a LA negative plasma sample pool in a 1:1 ratio during testing (i.e., in a mixing study setting). By a mixing study, clotting factors that are present in normal plasma are added to the test plasma suspected of having a coagulation disorder.
(§4) Referring to FIGS. 1A-B, while the effect of PPACK on SCT Screen and SCT Confirm is similar for the LA negative sample, PPACK has much greater impact on SCT Screen than on SCT Confirm for the LA positive samples.

[5] = system: LA positive plasma sample; experiment: as above
Excerpt: as §1, §2, §3, §4
The effect of PPACK on LA detection is further analyzed on the LA positive sample diluted with LA negative sample in different ratios (1:1 and 1:3 of LA positive: LA Negative). When the LA positive sample was diluted 4-fold with LA negative sample, the LA was not detectable in the absence of PPACK (NR: […]) thereby underscoring the increased sensitivity of the method disclosed herein.

[6] = sample 0114 LA NEG, LA Negative Pool
[7] = sample 0114 S03, FVIIIDef (con)
[8] = sample 0114 S04, FVIIIDef (con)
[9] = sample 0114 S05, FVIII (con)/vWF Def
[10] = sample 0114 S06, FVIII (con)/vWF Def

Compound: CC1CNc2c(cccc2S(=O)(=O)N[C@@H](CCCNC(=N)N)C(=O)N2CC[C@@H](C)C[C@@H]2C(=O)O)C1 (stereo partly shown) [argatroban]
- Screen-to-Confirm Ratio of dRVVT Assay ([1]; 500 ng/ml argatroban (1.06 in the absence of argatroban)): 0.9
- Normalized ratio of dRVVT Assay ([2]; LA positive sample, 500 ng/ml argatroban (from 1.34)): 1.57
- Change of Screen-to-Confirm Ratio of dRVVT Assay ([2]; LA positive sample, argatroban): didn't change

Compound: D-phenylalanyl-1-prolyl-1-arginine-chloromethyl ketone [PPACK]
- Screen-to-Confirm Ratio of dRVVT test ([1]; increasing PPACK concentrations (from 1.02)): 0.91
- NR of dRVVT test ([2]; LA positive sample 1:1 diluted with NPP, automated mixing study 1:1): 1.42
- NR of dRVVT test ([2]; LA positive sample 1:3 diluted with NPP, automated mixing study 1:1): 1.19
- NR of dRVVT test ([2]; LA positive sample undiluted, automated mixing study 1:1 with NPP/PPACK): 1.76
- Screen-to-Confirm Ratio of dRVVT test ([2]; LA positive sample, increasing PPACK concentrations (from 1.42)): 1.58
- Confirm [3, 6]: 50.4 s
- Confirm (Rc) [3, 6]: 1.00
- S/C (NR) [3, 6]: 1.00
- S/C (R) [3, 6]: 0.98
- Screen [3, 6]: 49.6 s
- Screen (Rs) [3, 6]: 1.00
- Confirm ([3]; sample 0114 S01, FVDef (con)): 62.8 s
- Confirm (Rc) ([3]; sample 0114 S01, FVDef (con)): 1.25
- S/C (NR) ([3]; sample 0114 S01, FVDef (con)): 1.02
- S/C (R) ([3]; sample 0114 S01, FVDef (con)): 1.01
- Screen ([3]; sample 0114 S01, FVDef (con)): 63.3 s
- Screen (Rs) ([3]; sample 0114 S01, FVDef (con)): 1.28
- Confirm ([3]; sample 0114 S02, FVDef (con)): 54.2 s
- Confirm (Rc) ([3]; sample 0114 S02, FVDef (con)): 1.08
- S/C (NR) ([3]; sample 0114 S02, FVDef (con)): 0.88
- S/C (R) ([3]; sample 0114 S02, FVDef (con)): 0.87
- Screen ([3]; sample 0114 S02, FVDef (con)): 46.9 s
- Screen (Rs) ([3]; sample 0114 S02, FVDef (con)): 0.95
- Confirm [3, 7]: 47.9 s
- Confirm (Rc) [3, 7]: 0.95
- S/C (NR) [3, 7]: 1.05
- S/C (R) [3, 7]: 1.04
- Screen [3, 7]: 49.7 s
- Screen (Rs) [3, 7]: 1.00
- Confirm [3, 8]: 48.5 s
- Confirm (Rc) [3, 8]: 0.96
- S/C (NR) [3, 8]: 1.03
- S/C (R) [3, 8]: 1.02
- Screen [3, 8]: 49.3 s
- Screen (Rs) [3, 8]: 0.99
- Confirm [3, 9]: 49.2 s
- Confirm (Rc) [3, 9]: 0.98
- S/C (NR) [3, 9]: 1.00
- S/C (R) [3, 9]: 0.98
- Screen [3, 9]: 48.4 s
- Screen (Rs) [3, 9]: 0.98
- Confirm [3, 10]: 48.9 s
- Confirm (Rc) [3, 10]: 0.97
- S/C (NR) [3, 10]: 1.01
- S/C (R) [3, 10]: 0.99
- Screen [3, 10]: 48.6 s
- Screen (Rs) [3, 10]: 0.98
- Confirm ([3]; sample 0114 S07, FIXDef (con)): 50.5 s
- Confirm (Rc) ([3]; sample 0114 S07, FIXDef (con)): 1.00
- S/C (NR) ([3]; sample 0114 S07, FIXDef (con)): 0.97
- S/C (R) ([3]; sample 0114 S07, FIXDef (con)): 0.95
- Screen ([3]; sample 0114 S07, FIXDef (con)): 41.1 s
- Screen (Rs) ([3]; sample 0114 S07, FIXDef (con)): 0.97
- Confirm ([3]; sample 0114 S08, FIXDef (con)): 48.9 s
- Confirm (Rc) ([3]; sample 0114 S08, FIXDef (con)): 0.97
- S/C (NR) ([3]; sample 0114 S08, FIXDef (con)): 1.01
- S/C (R) ([3]; sample 0114 S08, FIXDef (con)): 0.99
- Screen ([3]; sample 0114 S08, FIXDef (con)): 48.5 s
- Screen (Rs) ([3]; sample 0114 S08, FIXDef (con)): 0.98
- Confirm ([3]; sample 0114 S09, FXDef (con)): 59.2 s
- Confirm (Rc) ([3]; sample 0114 S09, FXDef (con)): 1.17
- S/C (NR) ([3]; sample 0114 S09, FXDef (con)): 1.04
- S/C (R) ([3]; sample 0114 S09, FXDef (con)): 1.03
- Screen ([3]; sample 0114 S09, FXDef (con)): 60.7 s
- Screen (Rs) ([3]; sample 0114 S09, FXDef (con)): 1.22
- Confirm ([3]; sample 0114 S10, FXDef (con)): 51.4 s
- Confirm (Rc) ([3]; sample 0114 S10, FXDef (con)): 1.02
- S/C (NR) ([3]; sample 0114 S10, FXDef (con)): 1.01
- S/C (R) ([3]; sample 0114 S10, FXDef (con)): 0.99
- Screen ([3]; sample 0114 S10, FXDef (con)): 51.1 s
- Screen (Rs) ([3]; sample 0114 S10, FXDef (con)): 1.03
- Confirm ([3]; sample 0114 S11, FXIDef (con)): 49.7 s
- Confirm (Rc) ([3]; sample 0114 S11, FXIDef (con)): 0.99
- S/C (NR) ([3]; sample 0114 S11, FXIDef (con)): 1.00
- S/C (R) ([3]; sample 0114 S11, FXIDef (con)): 0.98
- Screen ([3]; sample 0114 S11, FXIDef (con)): 48.8 s
- Screen (Rs) ([3]; sample 0114 S11, FXIDef (con)): 0.98
- Confirm ([3]; sample 0114 S12, FXIDef (con)): 47.7 s
- Confirm (Rc) ([3]; sample 0114 S12, FXIDef (con)): 0.95
- S/C (NR) ([3]; sample 0114 S12, FXIDef (con)): 1.00
- S/C (R) ([3]; sample 0114 S12, FXIDef (con)): 0.98
- Screen ([3]; sample 0114 S12, FXIDef (con)): 46.8 s
- Screen (Rs) ([3]; sample 0114 S12, FXIDef (con)): 0.94
- Confirm ([3]; sample 0114 S13, FXIIDef (con)): 45.3 s
- Confirm (Rc) ([3]; sample 0114 S13, FXIIDef (con)): 0.90
- S/C (NR) ([3]; sample 0114 S13, FXIIDef (con)): 1.01
- S/C (R) ([3]; sample 0114 S13, FXIIDef (con)): 0.99
- Screen ([3]; sample 0114 S13, FXIIDef (con)): 44.9 s
- Screen (Rs) ([3]; sample 0114 S13, FXIIDef (con)): 0.91
- Confirm ([3]; sample 0114 S14, FXIIDef (acq)): 53.4 s
- Confirm (Rc) ([3]; sample 0114 S14, FXIIDef (acq)): 1.06
- S/C (NR) ([3]; sample 0114 S14, FXIIDef (acq)): 0.94
- S/C (R) ([3]; sample 0114 S14, FXIIDef (acq)): 0.93
- Screen ([3]; sample 0114 S14, FXIIDef (acq)): 49.4 s
- Screen (Rs) ([3]; sample 0114 S14, FXIIDef (acq)): 1.00
- Confirm ([3]; sample 0114 S15, LA Postive): 49.7 s
- Confirm (Rc) ([3]; sample 0114 S15, LA Postive): 0.99
- S/C (NR) ([3]; sample 0114 S15, LA Postive): 2.49
- S/C (R) ([3]; sample 0114 S15, LA Postive): 2.45
- Screen ([3]; sample 0114 S15, LA Postive): 121.8 s
- Screen (Rs) ([3]; sample 0114 S15, LA Postive): 2.46
- Confirm ([3]; sample 0114 S16, LA Postive): 51.7 s
- Confirm (Rc) ([3]; sample 0114 S16, LA Postive): 1.03
- S/C (NR) ([3]; sample 0114 S16, LA Postive): 2.70
- S/C (R) ([3]; sample 0114 S16, LA Postive): 2.66
- Screen ([3]; sample 0114 S16, LA Postive): 137.4 s
- Screen (Rs) ([3]; sample 0114 S16, LA Postive): 2.77
- Confirm ([3]; sample 0114 S17, LA Postive): 49.8 s
- Confirm (Rc) ([3]; sample 0114 S17, LA Postive): 0.99
- S/C (NR) ([3]; sample 0114 S17, LA Postive): 2.19
- S/C (R) ([3]; sample 0114 S17, LA Postive): 2.15
- Screen ([3]; sample 0114 S17, LA Postive): 107.3 s
- Screen (Rs) ([3]; sample 0114 S17, LA Postive): 2.16
- Screen-to-Confirm Ratio (R) of SCT Assay ([4]; 100 nM PPACK (0.81 at 0 nM)): 0.83
- Screen-to-Confirm Ratio (R) of SCT Assay ([4]; 1000 nM PPACK (0.81 at 0 nM)): 0.78
- Change of Screen-to-Confirm Ratio of SCT Assay ([4]; NPP / LA negative sample, increasing PPACK concentrations): remained the same; also recorded: decreased slightly
- Normalized Ratio (NR) of SCT Assay ([5]; LA positive sample 1:1 diluted with NPP, 1000 ng/ml PPACK, automated mixing study 1:1): 1.82
- Normalized Ratio (NR) of SCT Assay ([5]; LA positive sample 1:3 diluted with NPP, 1000 ng/ml PPACK, automated mixing study 1:1): 1.46
- Normalized Ratio (NR) of SCT Assay ([5]; LA positive sample diluted 4-fold with LA negative sample, 1000 nM PPACK (1.08 in the absence of PPACK)): 1.46
- Normalized Ratio (NR) of SCT Assay ([5]; LA positive sample undiluted, 1000 ng/ml PPACK, automated mixing study 1:1 with NPP/PPACK): 2.34
- Screen-to-Confirm Ratio (R) of SCT Assay ([5]; LA positive sample, 1000 nM PPACK (1.09 in the absence of PPACK)): 1.82

Source: patent US10935560B2, “Method and kit for identifying lupus anticoagulant (LA) associated with antiphospholipid syndrome” (Instrumentation Laboratory Company, priority 2016, dated 2021)
